Test results reported in PubChem BioAssay (NCI).
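Each compound was tested at five concentrations against cells in 96-well plates for 48 hours. TGI is the concentration that stops growth completely.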 Where a SMILES comes first, the peptide text is derived from it. The star is where a group is joined. OSu = O=C1CCC(=O)N1O*

Legend:
Experiment in all cases: NCI anticancer screen, dose series, 48 h
CCRF-CEM leukemia = system: CCRF-CEM leukemia
HL-60(TB) leukemia = system: HL-60(TB) leukemia
HS 578T breast = system: HS 578T breast
OVCAR-4 ovarian = system: OVCAR-4 ovarian
OVCAR-5 ovarian = system: OVCAR-5 ovarian
SNB-75 CNS = system: SNB-75 CNS
UO-31 renal = system: UO-31 renal
UACC-62 melanoma = system: UACC-62 melanoma

Compound	TGI (CCRF-CEM leukemia) [µM]	TGI (HL-60(TB) leukemia) [µM]	TGI (HS 578T breast) [µM]	TGI (OVCAR-4 ovarian) [µM]	TGI (OVCAR-5 ovarian) [µM]	TGI (SNB-75 CNS) [µM]	TGI (UO-31 renal) [µM]	TGI (UACC-62 melanoma) [µM]
CCOC1CCN(C(=O)c2ccccc2)O1 (stereo not given)	> 10	> 10	> 10	> 10	> 10	> 10	> 10	
CC(=O)c1c(O)n(-c2ccc(C)cc2)c(=O)c2c(N)n[nH]c12	> 100	> 100	> 100	> 100	> 100	> 100	> 100	> 100
COc1cc(OC)c(OC)cc1/C=C/c1cc[n+](C)c2ccccc12	80.9	33		> 100	> 100	> 100	> 100	
O=c1[nH]nc(-c2ccc(F)cc2)cc1-c1ccccc1	> 100	> 100	> 100	> 100	> 100			> 100
CC(CC[C@@]1(O)OC2C[C@H]3[C@@H]4CC[C@H]5CC(OC6OC(CO)C(OC7OC(CO)C(O)C(OC8OCC(O)C(O)C8O)C7OC7OC(CO)C(O)C(O)C7O)C(O)C6O)[C@H](O)CC5(C)[C@H]4CCC3(C)C2[C@@H]1C)COC1OC(CO)C(O)C(O)C1O (stereo not given in full)	> 50	29.1	> 50	36.9	27.8	9.19	21.3	45.6
NCCCCC(NC(=O)C(N)Cc1ccc(O)cc1)C(=O)NC(Cc1ccc(O)cc1)C(=O)NC(CCCCN)C(=O)ON1C(=O)CCC1=O (stereo not given) (H-YKYK-OSu; configuration not given here)		> 100	> 100		> 100	> 100	> 100	> 100
CCC(=O)Nc1ccc(NCC(=O)Nc2ccc(OC)cc2)cc1	> 100	> 100	> 100	35.2	37.2	34.3	> 100	56.7
O=C1/C(=C/c2ccccc2)CCCc2ccccc21	43.6	35.5	40.4	32	42.2	> 100	31.9	28.6
COc1ccc2oc(C(=O)N3CC(CCl)c4ccc(N)cc43)cc2c1 (stereo not given)	9.17	15.6	3.53		> 41	3.23	0.617	0.496
CCOc1cc(-c2nc3cc(F)ccc3s2)ccc1O	18			43.2	33.3		25.8	31.6
C=CCCC(=O)C(=[N+]=[N-])C(=O)CCC(=O)c1ccccc1			> 10		> 10	> 10	> 10	> 10
COc1ccc(C2C3=C(COC3=O)OC(C)(C)Oc3cc4c(cc32)OCO4)cc1OC (stereo not given)	> 100	> 87.9	> 100	> 100	> 100	24.8	> 100	> 75.4
[N-]=[N+]=Nc1ccc2c(c1)Sc1ccccc1N2CCCCN1CCN(C(=O)CCNC(=O)Cc2ccc(C(=O)c3ccccc3)cc2)CC1	8.26	5.57	> 100	> 25.6	51.4	> 24.4	> 100	19.6
